Measured values taken from the NIST ThermoML archive (doi:10.1016/j.jct.2015.08.021).

Columns and labels:
[1] = 298.15 K; 101.33 kPa; Liquid; Vibrating tube method
[2] = refractive index (Na D-line) (dimensionless); conditions: 101.3 kPa, Liquid, Standard Abbe refractometry
[3] = relative permittivity at various frequencies (dimensionless); conditions: 101.3 kPa, Liquid, Frequency=0.1 MHz, Coaxial cylinder capacitor
[4] = refractive index (Na D-line) (dimensionless); xn = mol fraction of the nth substance listed; conditions: 101.3 kPa, Liquid, Standard Abbe refractometry
[5] = relative permittivity at various frequencies (dimensionless); xn = mol fraction of the nth substance listed; conditions: 101.3 kPa, Liquid, Frequency=0.1 MHz, Coaxial cylinder capacitor

OCCCCO [1,4-butanediol]
Conditions | mass density [kg/m3]
[1] | 1013.4

Conditions | refractive index, 298.15 K | refractive index, 308.15 K | refractive index, 318.15 K | relative permittivity, 298.15 K | relative permittivity, 308.15 K | relative permittivity, 318.15 K
[2] | 1.4445 | 1.4417 | 1.4393 | – | – | –
[3] | – | – | – | 31.587 | 29.482 | 27.203

OCCCCO [1,4-butanediol] + CC(C)CCO
Conditions | refractive index, 298.15 K | refractive index, 308.15 K | refractive index, 318.15 K | relative permittivity, 298.15 K | relative permittivity, 308.15 K | relative permittivity, 318.15 K
[4], x1 = 0.101 | 1.4088 | 1.4052 | 1.4014 | – | – | –
[4], x1 = 0.2 | 1.4123 | 1.4087 | 1.4055 | – | – | –
[4], x1 = 0.299 | 1.4165 | 1.4122 | 1.4093 | – | – | –
[4], x1 = 0.4 | 1.4203 | 1.4166 | 1.4137 | – | – | –
[4], x1 = 0.5 | 1.4244 | 1.4207 | 1.4175 | – | – | –
[4], x1 = 0.6 | 1.4291 | 1.4252 | 1.4222 | – | – | –
[4], x1 = 0.699 | 1.4325 | 1.4295 | 1.426 | – | – | –
[4], x1 = 0.801 | 1.4372 | 1.4336 | 1.4309 | – | – | –
[4], x1 = 0.9 | 1.4409 | 1.4376 | 1.4353 | – | – | –
[4], x1 = 1 | 1.4445 | 1.4417 | 1.4393 | – | – | –
[5], x1 = 0.101 | – | – | – | 15.856 | 14.411 | 13.099
[5], x1 = 0.2 | – | – | – | 16.963 | 15.522 | 14.197
[5], x1 = 0.299 | – | – | – | 18.26 | 16.765 | 15.4
[5], x1 = 0.4 | – | – | – | 19.772 | 18.22 | 16.76
[5], x1 = 0.5 | – | – | – | 21.409 | 19.78 | 18.225
[5], x1 = 0.6 | – | – | – | 23.176 | 21.499 | 19.794
[5], x1 = 0.699 | – | – | – | 25.066 | 23.351 | 21.52
[5], x1 = 0.801 | – | – | – | 27.119 | 25.335 | 23.403
[5], x1 = 0.9 | – | – | – | 29.28 | 27.371 | 25.287
[5], x1 = 1 | – | – | – | 31.587 | 29.482 | 27.203

OCCCCO [1,4-butanediol] + CCCCCO
Conditions | refractive index, 298.15 K | refractive index, 308.15 K | refractive index, 318.15 K | relative permittivity, 298.15 K | relative permittivity, 308.15 K | relative permittivity, 318.15 K
[4], x1 = 0.1 | 1.4118 | 1.4081 | 1.4051 | – | – | –
[4], x1 = 0.2 | 1.4147 | 1.4114 | 1.4089 | – | – | –
[4], x1 = 0.3 | 1.4185 | 1.4149 | 1.4119 | – | – | –
[4], x1 = 0.403 | 1.4226 | 1.4193 | 1.4166 | – | – | –
[4], x1 = 0.501 | 1.4256 | 1.4234 | 1.4201 | – | – | –
[4], x1 = 0.601 | 1.4302 | 1.4267 | 1.4242 | – | – | –
[4], x1 = 0.701 | 1.4334 | 1.431 | 1.428 | – | – | –
[4], x1 = 0.8 | 1.4375 | 1.4345 | 1.4324 | – | – | –
[4], x1 = 0.9 | 1.441 | 1.4382 | 1.4358 | – | – | –
[4], x1 = 1 | 1.4445 | 1.4417 | 1.4393 | – | – | –
[5], x1 = 0.1 | – | – | – | 16.037 | 14.699 | 13.391
[5], x1 = 0.2 | – | – | – | 17.171 | 15.827 | 14.452
[5], x1 = 0.3 | – | – | – | 18.467 | 17.054 | 15.646
[5], x1 = 0.403 | – | – | – | 19.924 | 18.471 | 17.026
[5], x1 = 0.501 | – | – | – | 21.49 | 19.97 | 18.416
[5], x1 = 0.601 | – | – | – | 23.245 | 21.632 | 19.971
[5], x1 = 0.701 | – | – | – | 25.108 | 23.459 | 21.616
[5], x1 = 0.8 | – | – | – | 27.105 | 25.339 | 23.393
[5], x1 = 0.9 | – | – | – | 29.265 | 27.356 | 25.251
[5], x1 = 1 | – | – | – | 31.587 | 29.482 | 27.203

C1COCCO1 [1,4-dioxane]
Conditions | mass density [kg/m3]
[1] | 1027.86

Conditions | refractive index, 298.15 K | refractive index, 308.15 K | refractive index, 318.15 K | relative permittivity, 298.15 K | relative permittivity, 308.15 K | relative permittivity, 318.15 K
[2] | 1.4202 | 1.4144 | 1.4086 | – | – | –
[3] | – | – | – | 2.229 | 2.209 | 2.187

C1COCCO1 [1,4-dioxane] + CC(C)CCO
x2 = 0
Conditions | refractive index, 298.15 K | refractive index, 308.15 K | refractive index, 318.15 K | relative permittivity, 298.15 K | relative permittivity, 308.15 K | relative permittivity, 318.15 K
[4] | 1.4202 | 1.4144 | 1.4086 | – | – | –
[5] | – | – | – | 2.229 | 2.209 | 2.187

C1COCCO1 [1,4-dioxane] + CCCCCO
Conditions | refractive index, 298.15 K | refractive index, 308.15 K | refractive index, 318.15 K | relative permittivity, 298.15 K | relative permittivity, 308.15 K | relative permittivity, 318.15 K
[4], x2 = 0 | 1.4202 | 1.4144 | 1.4086 | – | – | –
[4], x2 = 0.1 | 1.4181 | 1.4121 | 1.407 | – | – | –
[4], x2 = 0.2 | 1.4161 | 1.4103 | 1.4055 | – | – | –
[4], x2 = 0.3 | 1.4144 | 1.4088 | 1.4042 | – | – | –
[4], x2 = 0.4 | 1.4128 | 1.4074 | 1.403 | – | – | –
[4], x2 = 0.501 | 1.4114 | 1.4063 | 1.4021 | – | – | –
[4], x2 = 0.599 | 1.4104 | 1.4055 | 1.4014 | – | – | –
[4], x2 = 0.699 | 1.4096 | 1.4048 | 1.4008 | – | – | –
[4], x2 = 0.801 | 1.409 | 1.4044 | 1.4004 | – | – | –
[4], x2 = 0.9 | 1.4086 | 1.4042 | 1.4002 | – | – | –
[5], x2 = 0 | – | – | – | 2.229 | 2.209 | 2.187
[5], x2 = 0.1 | – | – | – | 2.657 | 2.587 | 2.527
[5], x2 = 0.2 | – | – | – | 3.255 | 3.124 | 3.024
[5], x2 = 0.3 | – | – | – | 4.016 | 3.77 | 3.63
[5], x2 = 0.4 | – | – | – | 4.941 | 4.63 | 4.402
[5], x2 = 0.501 | – | – | – | 6.082 | 5.652 | 5.34
[5], x2 = 0.599 | – | – | – | 7.387 | 6.781 | 6.332
[5], x2 = 0.699 | – | – | – | 8.915 | 8.18 | 7.529
[5], x2 = 0.801 | – | – | – | 10.714 | 9.793 | 8.951
[5], x2 = 0.9 | – | – | – | 12.796 | 11.622 | 10.578

CC(C)CCO [3-methylbutan-1-ol]
Conditions | mass density [kg/m3]
[1] | 807.16

Conditions | refractive index, 298.15 K | refractive index, 308.15 K | refractive index, 318.15 K | relative permittivity, 298.15 K | relative permittivity, 308.15 K | relative permittivity, 318.15 K
[2] | 1.4048 | 1.4011 | 1.3973 | – | – | –
[3] | – | – | – | 14.93 | 13.402 | 12.051

CC(C)CCO [3-methylbutan-1-ol] + C1COCCO1
Conditions | refractive index, 298.15 K | refractive index, 308.15 K | refractive index, 318.15 K | relative permittivity, 298.15 K | relative permittivity, 308.15 K | relative permittivity, 318.15 K
[4], x1 = 0.1 | 1.4177 | 1.4125 | 1.4069 | – | – | –
[4], x1 = 0.203 | 1.4151 | 1.4105 | 1.4054 | – | – | –
[4], x1 = 0.301 | 1.4133 | 1.4088 | 1.4039 | – | – | –
[4], x1 = 0.4 | 1.4114 | 1.4072 | 1.4026 | – | – | –
[4], x1 = 0.5 | 1.4098 | 1.4057 | 1.4012 | – | – | –
[4], x1 = 0.601 | 1.4084 | 1.4045 | 1.4001 | – | – | –
[4], x1 = 0.699 | 1.4072 | 1.4034 | 1.3992 | – | – | –
[4], x1 = 0.8 | 1.4063 | 1.4023 | 1.3984 | – | – | –
[4], x1 = 0.899 | 1.4054 | 1.4013 | 1.3978 | – | – | –
[4], x1 = 1 | 1.4048 | 1.4011 | 1.3973 | – | – | –
[5], x1 = 0.1 | – | – | – | 2.694 | 2.634 | 2.57
[5], x1 = 0.203 | – | – | – | 3.292 | 3.168 | 3.055
[5], x1 = 0.301 | – | – | – | 4.014 | 3.804 | 3.632
[5], x1 = 0.4 | – | – | – | 4.91 | 4.629 | 4.376
[5], x1 = 0.5 | – | – | – | 6.024 | 5.611 | 5.239
[5], x1 = 0.601 | – | – | – | 7.327 | 6.743 | 6.232
[5], x1 = 0.699 | – | – | – | 8.82 | 8.037 | 7.343
[5], x1 = 0.8 | – | – | – | 10.64 | 9.655 | 8.702
[5], x1 = 0.899 | – | – | – | 12.649 | 11.434 | 10.315
[5], x1 = 1 | – | – | – | 14.93 | 13.402 | 12.051

CC(C)CCO [3-methylbutan-1-ol] + OCCCCO
x2 = 0
Conditions | refractive index, 298.15 K | refractive index, 308.15 K | refractive index, 318.15 K | relative permittivity, 298.15 K | relative permittivity, 308.15 K | relative permittivity, 318.15 K
[4] | 1.4048 | 1.4011 | 1.3973 | – | – | –
[5] | – | – | – | 14.93 | 13.402 | 12.051

CCCCCO [pentan-1-ol]
Conditions | mass density [kg/m3]
[1] | 811.1

Conditions | refractive index, 298.15 K | refractive index, 308.15 K | refractive index, 318.15 K | relative permittivity, 298.15 K | relative permittivity, 308.15 K | relative permittivity, 318.15 K
[2] | 1.4082 | 1.4041 | 1.4001 | – | – | –
[3] | – | – | – | 15.11 | 13.72 | 12.391

CCCCCO [pentan-1-ol] + C1COCCO1
x1 = 1
Conditions | refractive index, 298.15 K | refractive index, 308.15 K | refractive index, 318.15 K | relative permittivity, 298.15 K | relative permittivity, 308.15 K | relative permittivity, 318.15 K
[4] | 1.4082 | 1.4041 | 1.4001 | – | – | –
[5] | – | – | – | 15.11 | 13.72 | 12.391

CCCCCO [pentan-1-ol] + OCCCCO
x2 = 0
Conditions | refractive index, 298.15 K | refractive index, 308.15 K | refractive index, 318.15 K | relative permittivity, 298.15 K | relative permittivity, 308.15 K | relative permittivity, 318.15 K
[4] | 1.4082 | 1.4041 | 1.4001 | – | – | –
[5] | – | – | – | 15.11 | 13.72 | 12.391
